Measured values reported in patent publication US11891365B2, “3-alkyl-4-amido-bicyclic [4,5,0] hydroxamic acids as HDAC inhibitors” (Valo Health, Inc., priority 2015, dated 2024).

biological target: T1, Full length human recombinant HDAC6 protein (Homo sapiens, UniProt Q9UBN7); assay: In vitro histone deacetylase assay: enzymatic HDAC6 electrophoretic mobility shift assay; assay type: biochemical; conditions: 1 nM enzyme, 2 μM peptide substrate RHKK(Ac)-NH2, 25° C., 12 concentrations; read-out: Inhibitory Concentration (IC50) Values against HDAC6, Activity Range
T1 sequence (Q9UBN7 1-1215): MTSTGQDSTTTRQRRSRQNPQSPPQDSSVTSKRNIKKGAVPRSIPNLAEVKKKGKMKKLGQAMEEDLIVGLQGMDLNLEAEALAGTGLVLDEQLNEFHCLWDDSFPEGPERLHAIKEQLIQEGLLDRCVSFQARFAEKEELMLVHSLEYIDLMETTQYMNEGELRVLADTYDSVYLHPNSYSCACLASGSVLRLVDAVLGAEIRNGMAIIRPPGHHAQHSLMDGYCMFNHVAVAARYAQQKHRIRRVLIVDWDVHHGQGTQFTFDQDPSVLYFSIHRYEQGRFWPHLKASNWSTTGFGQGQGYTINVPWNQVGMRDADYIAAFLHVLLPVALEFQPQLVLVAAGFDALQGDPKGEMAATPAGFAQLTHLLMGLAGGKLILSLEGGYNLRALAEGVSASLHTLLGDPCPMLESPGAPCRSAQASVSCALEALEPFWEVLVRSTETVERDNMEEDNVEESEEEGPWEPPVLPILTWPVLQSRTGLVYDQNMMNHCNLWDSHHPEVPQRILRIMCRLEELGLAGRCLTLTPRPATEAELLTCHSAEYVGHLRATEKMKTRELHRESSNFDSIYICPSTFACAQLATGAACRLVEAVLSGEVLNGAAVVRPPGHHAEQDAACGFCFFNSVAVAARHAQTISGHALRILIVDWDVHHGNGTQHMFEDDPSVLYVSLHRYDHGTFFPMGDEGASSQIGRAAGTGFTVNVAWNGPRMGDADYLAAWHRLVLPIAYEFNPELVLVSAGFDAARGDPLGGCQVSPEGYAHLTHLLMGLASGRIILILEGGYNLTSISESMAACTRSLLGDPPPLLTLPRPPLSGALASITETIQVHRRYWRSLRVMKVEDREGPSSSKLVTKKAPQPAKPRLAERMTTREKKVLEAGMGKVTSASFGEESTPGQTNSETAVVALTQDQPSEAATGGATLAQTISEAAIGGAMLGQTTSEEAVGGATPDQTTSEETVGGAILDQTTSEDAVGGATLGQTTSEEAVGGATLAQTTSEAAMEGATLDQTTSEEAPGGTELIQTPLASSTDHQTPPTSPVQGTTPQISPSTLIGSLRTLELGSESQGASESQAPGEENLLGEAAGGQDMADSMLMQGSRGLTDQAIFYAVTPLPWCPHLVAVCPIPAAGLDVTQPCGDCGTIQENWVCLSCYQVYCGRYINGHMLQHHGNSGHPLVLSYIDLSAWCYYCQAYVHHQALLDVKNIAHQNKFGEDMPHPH

C[C@H]1COc2cc(C(=O)NO)ccc2CN1C(=O)C1(F)CCOCC1 [(S)-4-(4-fluorotetrahydro-2H-pyran-4-carbonyl)-N-hydroxy-3-methyl-2,3,4,5-tetrahydrobenzo[f][1,4]oxazepine-8-carboxamide] and C[C@H]1COc2cc(C(=O)NO)ccc2CN1C(=O)C1(C)CCOCC1 [(S)-N-hydroxy-3-methyl-4-(4-methyltetrahydro-2H-pyran-4-carbonyl)-2,3,4,5-tetrahydrobenzo[f][1,4]oxazepine-8-carboxamide] cannot be ordered by IC50: no more than 100 nM for the first, no more than 100 nM for the second.

C[C@H]1COc2cc(C(=O)NO)ccc2CN1C(=O)[C@@H]1CCOC(C)(C)C1 [(S)-4-((R)-2,2-dimethyltetrahydro-2H-pyran-4-carbonyl)-N-hydroxy-3-methyl-2,3,4,5-tetrahydrobenzo[f][1,4]oxazepine-8-carboxamide] and C[C@H]1COc2cc(C(=O)NO)ccc2CN1C(=O)[C@H]1CCOC(C)(C)C1 [(S)-4-((S)-2,2-dimethyltetrahydro-2H-pyran-4-carbonyl)-N-hydroxy-3-methyl-2,3,4,5-tetrahydrobenzo[f][1,4]oxazepine-8-carboxamide] cannot be ordered by IC50: no more than 100 nM for the first, no more than 100 nM for the second.

C[C@H]1COc2cc(C(=O)NO)ccc2CN1C(=O)C1CCC1 [(S)-4-(cyclobutanecarbonyl)-N-hydroxy-3-methyl-2,3,4,5-tetrahydrobenzo[f][1,4]oxazepine-8-carboxamide] and C[C@H]1COc2cc(C(=O)NO)ccc2CN1C(=O)C1CC1 [(S)-4-(cyclopropanecarbonyl)-N-hydroxy-3-methyl-2,3,4,5-tetrahydrobenzo[f][1,4]oxazepine-8-carboxamide] cannot be ordered by IC50: no more than 100 nM for the first, no more than 100 nM for the second.

C[C@H]1COc2cc(C(=O)NO)ccc2CN1C(=O)C1CCCCC1 [(S)-4-(cyclohexanecarbonyl)-N-hydroxy-3-methyl-2,3,4,5-tetrahydrobenzo[f][1,4]oxazepine-8-carboxamide] and C[C@H]1COc2cc(C(=O)NO)ccc2CN1C(=O)C1CCCC1 [(S)-4-(cyclopentanecarbonyl)-N-hydroxy-3-methyl-2,3,4,5-tetrahydrobenzo[f][1,4]oxazepine-8-carboxamide] cannot be ordered by IC50: no more than 100 nM for the first, no more than 100 nM for the second.

Going from CC(=O)N1Cc2ccc(C(=O)NO)cc2O[C@@H](C)C1 [(S)-4-acetyl-N-hydroxy-2-methyl-2,3,4,5-tetrahydrobenzo[f][1,4]oxazepine-8-carboxamide] to C[C@H]1CN(C=O)Cc2ccc(C(=O)NO)cc2O1 [(S)-4-formyl-N-hydroxy-2-methyl-2,3,4,5-tetrahydrobenzo[f][1,4]oxazepine-8-carboxamide], the IC50 falls from greater than 500 nM to no more than 100 nM. The second is the more potent here.

CC(=O)N1Cc2ccc(C(=O)NO)cc2OC[C@@H]1C(C)C [(S)-4-acetyl-N-hydroxy-3-isopropyl-2,3,4,5-tetrahydrobenzo[f][1,4]oxazepine-8-carboxamide] and CC(=O)N1Cc2ccc(C(=O)NO)cc2OC[C@@H]1C [(S)-4-acetyl-N-hydroxy-3-methyl-2,3,4,5-tetrahydrobenzo[f][1,4]oxazepine-8-carboxamide] fall in the same range of IC50: 100 to 500 nM for the first, 100 to 500 nM for the second.

C[C@H]1COc2cc(C(=O)NO)ccc2CN1C(=O)c1ccccc1 [(S)-4-benzoyl-N-hydroxy-3-methyl-2,3,4,5-tetrahydrobenzo[f][1,4]oxazepine-8-carboxamide] and C[C@H]1COc2cc(C(=O)NO)ccc2CN1C(=O)C(C)(C)c1cccnc1 [(S)-N-hydroxy-3-methyl-4-(2-methyl-2-(pyridin-3-yl)propanoyl)-2,3,4,5-tetrahydrobenzo[f][1,4]oxazepine-8-carboxamide] cannot be ordered by IC50: no more than 100 nM for the first, no more than 100 nM for the second.

COC[C@@H]1CN(C=O)Cc2ccc(C(=O)NO)cc2O1 [(S)-4-formyl-N-hydroxy-2-(methoxymethyl)-2,3,4,5-tetrahydrobenzo[f][1,4]oxazepine-8-carboxamide] and COC[C@@H]1CN(C(=O)C2(C)CCC2)Cc2ccc(C(=O)NO)cc2O1 [(S)-N-hydroxy-2-(methoxymethyl)-4-(1-methylcyclobutane-1-carbonyl)-2,3,4,5-tetrahydrobenzo[f][1,4]oxazepine-8-carboxamide] cannot be ordered by IC50: 100 to 500 nM for the first, no more than 100 nM for the second.

O=CN1Cc2ccc(C(=O)NO)cc2O[C@@H](c2ccccc2)C1 [(S)-4-formyl-N-hydroxy-2-phenyl-2,3,4,5-tetrahydrobenzo[f][1,4]oxazepine-8-carboxamide] and O=C(NO)c1ccc2c(c1)O[C@@H](c1ccccc1)CN(C(=O)C1CCOCC1)C2 [(S)-N-hydroxy-2-phenyl-4-(tetrahydro-2H-pyran-4-carbonyl)-2,3,4,5-tetrahydrobenzo[f][1,4]oxazepine-8-carboxamide] cannot be ordered by IC50: no more than 100 nM for the first, no more than 100 nM for the second.

C[C@H]1COc2cc(C(=O)NO)ccc2CN1C=O [(S)-4-formyl-N-hydroxy-3-methyl-2,3,4,5-tetrahydrobenzo[f][1,4]oxazepine-8-carboxamide] and C[C@H]1COc2cc(C(=O)NO)ccc2CN1C(=O)C1(C)CCC1 [(S)-N-hydroxy-3-methyl-4-(1-methylcyclobutane-1-carbonyl)-2,3,4,5-tetrahydrobenzo[f][1,4]oxazepine-8-carboxamide] cannot be ordered by IC50: no more than 100 nM for the first, no more than 100 nM for the second.

COC[C@@H]1CN(C(=O)C2CCOCC2)Cc2ccc(C(=O)NO)cc2O1 [(S)-N-hydroxy-2-(methoxymethyl)-4-(tetrahydro-2H-pyran-4-carbonyl)-2,3,4,5-tetrahydrobenzo[f][1,4]oxazepine-8-carboxamide] and COC[C@H]1COc2cc(C(=O)NO)ccc2CN1C(=O)C1CCOCC1 [(S)-N-hydroxy-3-(methoxymethyl)-4-(tetrahydro-2H-pyran-4-carbonyl)-2,3,4,5-tetrahydrobenzo[f][1,4]oxazepine-8-carboxamide] cannot be ordered by IC50: 100 to 500 nM for the first, no more than 100 nM for the second.

C[C@H]1CN(C(=O)C2(C)CCC2)Cc2ccc(C(=O)NO)cc2O1 [(S)-N-hydroxy-2-methyl-4-(1-methylcyclobutane-1-carbonyl)-2,3,4,5-tetrahydrobenzo[f][1,4]oxazepine-8-carboxamide] and CC(C)[C@H]1COc2cc(C(=O)NO)ccc2CN1C(=O)C1(C)CCC1 [(S)-N-hydroxy-3-isopropyl-4-(1-methylcyclobutane-1-carbonyl)-2,3,4,5-tetrahydrobenzo[f][1,4]oxazepine-8-carboxamide] cannot be ordered by IC50: 100 to 500 nM for the first, no more than 100 nM for the second.

CC(C)[C@H]1COc2cc(C(=O)NO)ccc2CN1C(=O)CC1CCOCC1 [(S)-N-hydroxy-3-isopropyl-4-(2-(tetrahydro-2H-pyran-4-yl)acetyl)-2,3,4,5-tetrahydrobenzo[f][1,4]oxazepine-8-carboxamide] and C[C@H]1COc2cc(C(=O)NO)ccc2CN1C(=O)CC1CCOCC1 [(S)-N-hydroxy-3-methyl-4-(2-(tetrahydro-2H-pyran-4-yl)acetyl)-2,3,4,5-tetrahydrobenzo[f][1,4]oxazepine-8-carboxamide] fall in the same range of IC50: 100 to 500 nM for the first, 100 to 500 nM for the second.

CC(C)[C@H]1COc2cc(C(=O)NO)ccc2CN1C(=O)C1CCOCC1 [(S)-N-hydroxy-3-isopropyl-4-(tetrahydro-2H-pyran-4-carbonyl)-2,3,4,5-tetrahydrobenzo[f][1,4]oxazepine-8-carboxamide] and C[C@H]1COc2cc(C(=O)NO)ccc2CN1C(=O)C(C)(C)C1CCOCC1 [(S)-N-hydroxy-3-methyl-4-(2-methyl-2-(tetrahydro-2H-pyran-4-yl)propanoyl)-2,3,4,5-tetrahydrobenzo[f][1,4]oxazepine-8-carboxamide] cannot be ordered by IC50: no more than 100 nM for the first, no more than 100 nM for the second.

C[C@H]1COc2cc(C(=O)NO)ccc2CN1C(=O)CCOCC(F)(F)F [(S)-N-hydroxy-3-methyl-4-(3-(2,2,2-trifluoroethoxy)propanoyl)-2,3,4,5-tetrahydrobenzo[f][1,4]oxazepine-8-carboxamide] and C[C@H]1COc2cc(C(=O)NO)ccc2CN1C(=O)CCOC1CCOCC1 [(S)-N-hydroxy-3-methyl-4-(3-((tetrahydro-2H-pyran-4-yl)oxy)propanoyl)-2,3,4,5-tetrahydrobenzo[f][1,4]oxazepine-8-carboxamide] cannot be ordered by IC50: no more than 100 nM for the first, 100 to 500 nM for the second.

C[C@H]1COc2cc(C(=O)NO)ccc2CN1C(=O)C1(C)COC1 [(S)-N-hydroxy-3-methyl-4-(3-methyloxetane-3-carbonyl)-2,3,4,5-tetrahydrobenzo[f][1,4]oxazepine-8-carboxamide] and C[C@H]1OCCC[C@@H]1C(=O)N1Cc2ccc(C(=O)NO)cc2OC[C@@H]1C [(S)-N-hydroxy-3-methyl-4-((2R,3S)-2-methyltetrahydro-2H-pyran-3-carbonyl)-2,3,4,5-tetrahydrobenzo[f][1,4]oxazepine-8-carboxamide] cannot be ordered by IC50: no more than 100 nM for the first, no more than 100 nM for the second.
